Data from patent US20230321063A1, “COMPOSITIONS AND METHODS TO REDUCE NEUROINFLAMMATION” (Seattle Children's Hospital d/b/a Seattle Children's …, priority 2020, published 2023).
Entries after “also recorded” stand apart in the source; their conditions may differ.

Columns and labels:
Ndufs4(KO) mice [1] = conditions: rapamycin at doses sufficient to attenuate disease; Johnson et al.; cited from earlier work
Ndufs4(KO) mice [2] = assay: Longitudinal assessment of neurological disease symptoms (clasping, ataxia, circling); format: in vivo, mouse; conditions: Ndufs4(KO) mice vs untreated
Protocol: Longitudinal assessments of neurological disease symptoms. Clasping, ataxia, and circling were assessed by visual scoring, as previously described. As disease progresses in the Ndufs4(KO) mice animals display intermittent/transient improvement of symptoms. […] For observational assessments, lab-wide quality control discussions occurred frequently to ensure consistency between technicians/researchers. Technicians contributed equally to each treatment group to minimize any potential bias between individuals.

[3] = test system: Ndufs4(KO) mouse model of LS; assay: Survival studies and overall disease course in Ndufs4(KO) mice; format: in vivo; conditions: for impact on disease (overall) / disease or survival: Ndufs4(KO) mice; for survival: Ndufs4(KO) mice vs untreated
Protocol: (§1) Ndufs4(+/−) mice were bred to produce Ndufs4(KO) (Ndufs4(−/−)) offspring. Mice were weaned at 20-21 days of age. Ndufs4(KO) animals were housed with a minimum of one control littermate for warmth and stimulation. Mice were weighed, and health assessed, a minimum of 3 times per week, every other day (daily for IP injected mice, see herein). Where longitudinal blood point-of-care data was collected, this was performed during these health checks. Wetted chow in a dish on the bottom of each cage, and in-cage water bottles, were provided to all cages housing Ndufs4(KO) mice following the onset of disease so that the ability to find or reach food or water was not a limiting factor for survival.
Doses of each drug was based on published data for use in animals. […] Blood and tissue concentrations reached biologically relevant levels for each of the tested inhibitors.
Pharmacologic interventions and chow formulation. Standard mouse chow was ground to a power and mixed with drugs at the doses desired (see FIGS. 4A-4L). 300 mL of 1% agar melted in sterile water was added per kilogram of powdered chow and the mixture was pelleted and baked at 37° C. for 3-5 hours to dry. Pellets were then stored at 4° C. for short term (up to 90 days) or −20° C. for long-term (up to 6 months) storage. It was previously shown that this processing had no impact on animal health or survival (Johnson et al. Front Genet. 2015; 6:247). […]
To determine whether the benefits of mTOR inhibition in Ndufs4(KO) model result from disruption of PI3K mediated signaling, animals were treated from weaning (post-natal day 21, P21) with potent, orally available, isoform specific inhibitors of the catalytic subunits of PI3K: BYL719, GSK2636771, CAL-101, and IPI-549, inhibitors of p110α, p110β, p110δ, and p110γ, respectively.

Ndufs4(KO) mice [4] = assay: Body weight, growth and cachexia onset; format: in vivo, mouse
Protocol: as §1
Cachexia in FIG. 4H and FIG. 6E is the day of life when weight peaks prior to the progressive weight loss which occurs in untreated Ndufs4(KO) animals.

Ndufs4(KO) mice [5] = assay: Rotarod assay; format: in vivo, mouse; conditions: latency to fall up to 10 min, 6 rpm
Protocol: Rotarod and rotarod seizures. Rotarod assays were performed using a Med Associates Inc. (Fairfax, VT) ENV-571M single lane rotarod with a black mat installed in the floor of the lane to reduce visibility of the bottom. Assays were performed by placing animals onto an already rotating rod and timing latency to fall, with a steady rotation speed set to 6 rpm (controlled by attached laptop and Med Associates software). The maximum time of each trial was 10 min, with the trial ending at that time if mice were still on the rotarod. For each assay, three trials were performed, with a minimum of 5 min between each assay. The best of the three trials was reported for the rotarod data. As detailed in the text and figure legends, rotarod was performed each 10 days of age from P30; mice in a given age group were the reported age +/−1 day.

Ndufs4(KO) mice [6] = assay: Point-of-care blood glucose by age; format: in vivo, mouse
Description: (§2) Point-of-care glucose and lactate testing. Blood glucose and lactate measurements were collected using point-of-care meters (Prodigy Autocode® glucose meter, product #51850-3466188, Prodigy® Diabetes Care, LLC, Charlotte, NC; lactate assay meter, product #40828, Nova Biomedical, Waltham, MA) and the tail-prick method, as previously described (Stokes et al. Elife 2021; 10:e65400).

[7] = test system: control and Ndufs4(KO) mice; assay: Glucose tolerance test (GTT) and glucose induced lactate test; format: in vivo, mouse; conditions: 2 g/kg glucose IP; pexidartinib 300 mg/kg/d in chow, IPI-549 100 mg/kg/d in chow, rapamycin (ABI-009) 8 mg/kg/d IP
Description: as §2
Glucose tolerance test (GTT) and glucose induced lactate test. Prior to performing the GTT, mice were fasted for 4 hours, from 10 AM-2 PM. The fasting duration was limited to 4 hours given the sensitivity of untreated Ndufs4(KO) animals to hypoglycemia and related sequelae (dysregulation of body temperature, hypoglycemia induced seizure, etc.). For the ABI-009 cohort, mice received their daily ABI-009 treatment at the start of this fasting period. At the end of the 4 hour fast, baseline blood glucose and lactate values were collecting using point-of-care meters and the tail-prick method. Mice were then injected by IP with 2 g/kg dextrose (10 microliters/gram body weight of 200 mg/mL glucose in 1×PBS, 0.2 micron sterile filtered) using an insulin syringe (31-gauge, 6 mm length, 3/10 cc, BD Veo Ultra-Fine needle). Glucose and lactate levels were measured using a minimally invasive tail-prick method at designated timepoints post-injection.

| Structure (SMILES) | developmental weight gain and maximum body size (Ndufs4(KO) mice [1]) | onset of symptoms: forelimb clasping, ataxia, and circling (Ndufs4(KO) mice [2]) | impact on disease (overall) / disease or survival [3] | survival [3] | growth and body size (Ndufs4(KO) mice [4]; compared with mTOR inhibition) | performance on rotarod assay (Ndufs4(KO) mice [5]) | median survival ([3]; Ndufs4(KO) mice treated from weaning (P21) via chow, untreated 60) | cachexia (Ndufs4(KO) mice [4]) | hypoglycemia (blood glucose) (Ndufs4(KO) mice [6]) | blood lactate spike in response to a glucose bolus [7] |
| --- | --- | --- | --- | --- | --- | --- | --- | --- | --- | --- |
| CO[C@H]1C[C@@H]2CC[C@@H](C)[C@@](O)(O2)C(=O)C(=O)N2CCCC[C@H]2C(=O)O[C@H]([C@H](C)C[C@@H]2CC[C@@H](O)[C@H](OC)C2)CC(=O)[C@H](C)/C=C(\C)[C@@H](O)[C@@H](OC)C(=O)[C@H](C)C[C@H](C)/C=C/C=C/C=C/1C [rapamycin] | significant reductions | – | – | – | – | – | – | – | – | – |
| Cc1nc(NC(=O)N2CCC[C@H]2C(N)=O)sc1-c1ccnc(C(C)(C)C(F)(F)F)c1 [BYL719, (2S)-1-N-[4-methyl-5-[2-(1,1,1-trifluoro-2-methylpropan-2-yl)pyridin-4-yl]-1,3-thiazol-2-yl]pyrrolidine-1,2-dicarboxamide] | – | statistically significant delay in symptom onset | only modestly impacting disease | extension of survival | extremely small body size; also recorded: severely impaired growth and size | – | – | – | – | – |
| C[C@H](NC(=O)c1c(N)nn2cccnc12)c1cc2cccc(C#Cc3cnn(C)c3)c2c(=O)n1-c1ccccc1 [IPI-549, 2-amino-N-[(1S)-1-[8-[2-(1-methylpyrazol-4-yl)ethynyl]-1-oxo-2-phenylisoquinolin-3-yl]ethyl]pyrazolo[1,5-a]pyrimidine-3-carboxamide] | – | significantly delayed the onset | attenuated disease | markedly extended survival | – | improved | 110 days | prevented | prevented | similarly prevented the lactate sequelae |
